target: T1, aromatase (Homo sapiens, UniProt P11511); assay: aromatase inhibition action (3H2O liberated by aromatization of [1,2-3H] androstenedione, human placental microsome); type: biochemical; details: freeze-dried human placental microsome 150 μg; 2 μM [1,2-3H] androstenedione; 180 μM NADPH; pH 7.5; 37° C., 20 minutes
T1 construct: human placental microsome (one obtained by centrifugation at 105,000); from tissue; host or cells: human placenta, microsomes (washed with dithiothreitol, freeze-dried)
T1 sequence (P11511 1-503): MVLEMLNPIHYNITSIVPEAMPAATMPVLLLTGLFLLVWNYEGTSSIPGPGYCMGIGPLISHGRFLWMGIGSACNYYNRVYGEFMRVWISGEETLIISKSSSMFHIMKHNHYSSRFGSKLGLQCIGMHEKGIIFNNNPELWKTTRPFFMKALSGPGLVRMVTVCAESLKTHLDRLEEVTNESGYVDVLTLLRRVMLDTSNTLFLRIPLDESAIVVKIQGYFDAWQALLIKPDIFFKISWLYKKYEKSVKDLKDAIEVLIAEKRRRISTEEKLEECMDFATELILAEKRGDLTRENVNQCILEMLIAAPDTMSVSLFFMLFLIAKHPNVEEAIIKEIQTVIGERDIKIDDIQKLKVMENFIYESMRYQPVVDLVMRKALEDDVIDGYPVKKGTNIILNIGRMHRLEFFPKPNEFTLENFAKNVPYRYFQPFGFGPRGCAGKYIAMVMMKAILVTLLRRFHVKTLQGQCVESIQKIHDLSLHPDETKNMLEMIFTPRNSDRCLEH
Method: (1) Assay of aromatase inhibition action
According to the method of Ryan (The Journal of Biological Chemistry, 234, 268-272, 1959), human placental microsome (one obtained by centrifugation at 105,000 × g for 60 minutes) was prepared. A microsome was used after being washed twice with 0.5 mM dithiothreitol solution, freeze-driedand stored at -20° C.
Aromatase inhibition action was assayed according to the method developed by Tompson and Siiteri (The Journal of Biological Chemistry, 249, 5373-5378, 1974). The method is to determine the amount of ^3 H2 O liberated by aromatization of [1,2-^3 H] androstenedione. The experiment using the enzyme is carried out in 67 mM phosphate buffer of pH 7.5 so that the amount of the last incubation liquid gets to be 0.5 mi. The incubation liquid contains 180 μM NADPH, 2 μM [1,2-^3 H] androstenedione, 150 μg of the freeze-dried human placental microsome, 25 μl of methanol and a test compound in various concentrations. The incubation is carried out in the air at 37° C. for 20 minutes, 3 ml of chloroform is added to finish the reaction, and then the mixture is stirred for 40 seconds. Then, centrifugation is conducted at 700 × g for 10 minutes, 0.3 ml of the aqueous solution is removed from the supernatant, the scintillation mixture is added, and the amount of ^3 H2 O formed is determined

Structure (SMILES) | IC50 [µM]
C[C@]12CCCC=C1CC[C@@H]1[C@@H]2CC[C@]2(C)C(=O)OC[C@@H]12 [Example 3, 16-oxaandrost-4-en-17-one] | 1.2
C[C@]12CCCC=C1CC[C@@H]1[C@@H]2CC[C@]2(C)C(=O)OCC[C@@H]12 [Example 25, D-homo-17-oxaandrost-4-en-17a-one] | 0.73
C[C@]12CCCC=C1[C@@H]1[C@H]([C@@H]3[C@@H]2CC[C@]2(C)C(=O)OCC[C@@H]32)C1(F)F [Example 28, 6α,7α-difluoromethylene-D-homo-17-oxaandrost-4-en-17a-one] | 1.3
C[C@]12CCC(=O)C(O)=C1CC[C@@H]1[C@@H]2CC[C@]2(C)C(=O)OCC[C@@H]12 [Example 31, 4-hydroxy-D-homo-17-oxaandrost-4-ene-3,17a-dione] | 0.6
C=C1C[C@@H]2[C@H](CC[C@]3(C)C(=O)OCC[C@@H]23)[C@@]2(C)C=CC(=O)C=C12 [Example 36, 6-methylene-17-oxa-D-homoandrosta-1,4-diene-3,17a-dione] | 2.1

Results, then the molecule that gave them:

IC50 [µM] | Structure (SMILES)
2.7 | C[C@]12CC[C@H]3[C@@H](CC(=O)C4=CC(=O)CC[C@@]43C)[C@@H]1CCOC2 [Example 50, D-homo-17-oxaandrost-4-ene-3,6-dione]
2.9 | C[C@]12CC[C@H]3[C@@H](C=CC4=CC(=O)C=C[C@@]43C)[C@@H]1CCOC2 [Example 51, D-homo-17-oxaandrosta-1,4,6-trien-3-one]
1.9 | C[C@]12CC[C@H]3[C@@H](CCC4=C(O)C(=O)CC[C@@]43C)[C@@H]1CCOC2 [Example 56, 4-hydroxy-D-homo-17-oxaandrost-4-en-3-one]
